Our source for the IC50 and efflux ratio values is US20250082630A1, “METHODS OF TREATING BRAIN TUMOURS AND NEUROBLASTOMAS” (AstraZeneca AB, priority 2021, published 2025).

One series has as its target PARP2 (Homo sapiens (Human), UniProt Q9UGN5). Nature of the series: PARP fluorescence anisotropy binding assay, PARP2. The procedure: Recombinant full length PARP2 protein was diluted to 6 nM with 50 mM Tris pH 8, 0.001% Triton X100, 10 mM MgCl2, 150 mM NaCl and incubated for four hours with an equivalent volume of 2 nM fluorescent probe diluted with 50 mM Tris pH 8, 0.001% Triton X100, 10 mM MgCl2, 150 mM NaCl. The final DMSO concentration of the probe was kept below 1% (v/v).
Fluorescence anisotropy of the probe when bound to the proteins was measured using a BMG Pherastar FSX® in the presence of test compounds or solvent control and the effect on anisotropy determined. % inhibition values for different test compound concentrations were calculated and fitted to a four parameter logistic plot in order to determine the IC50 value.

The next series deals with MDR1 and BCRP. Nature of the series: In vitro human transporter efflux (MDCK-MDR1-BCRP). The note with it: human, pH 7.4.
For a further series, the target named is PARP6 (Homo sapiens (Human), UniProt Q2NL67). Nature of the series: PARP fluorescence anisotropy binding assay, PARP6. As for the experimental part: Recombinant full length GST tagged PARP6 protein was diluted to 160 nM with 50 mM Tris pH 8, 0.001% Triton X100, 10 mM MgCl2, 150 mM NaCl and incubated for four hours with an equivalent volume of 6 nM fluorescent probe diluted with 50 mM Tris pH 8, 0.001% Triton X100, 10 mM MgCI2, 150 mM NaCl. The final DMSO concentration of the probe was kept below 1% (v/v).
Fluorescence anisotropy of the probe when bound to the proteins was measured using a BMG Pherastar FSX® in the presence of test compounds or solvent control and the effect on anisotropy determined. % inhibition values for different test compound concentrations were calculated and fitted to a four parameter logistic plot in order to determine the IC50 value. Where necessary, the compound K, can be determined from the IC50 value using a Munson Rodbard equation defined in Anal Biochem. 1980 Sep. 1; 107(1):220-39 and is based on the known KD of the probe binding to the relevant PARP protein
For orientation: Fluorescence polarisation rises when a labelled molecule tumbles more slowly, as on binding a larger partner.

Another series concerns the target PARP5a (Homo sapiens (Human), UniProt O95271). Nature of the series: PARP fluorescence anisotropy binding assay, PARP5a.
For another series, the target named is PARP1 (Homo sapiens (Human), UniProt P09874). Nature of the series: PARP fluorescence anisotropy binding assay, PARP1.
The target of a further series is PARP3 (Homo sapiens (Human), UniProt Q9Y6F1). Nature of the series: PARP fluorescence anisotropy binding assay, PARP3.
Chain of PARP3 (Q9Y6F1 whole entry): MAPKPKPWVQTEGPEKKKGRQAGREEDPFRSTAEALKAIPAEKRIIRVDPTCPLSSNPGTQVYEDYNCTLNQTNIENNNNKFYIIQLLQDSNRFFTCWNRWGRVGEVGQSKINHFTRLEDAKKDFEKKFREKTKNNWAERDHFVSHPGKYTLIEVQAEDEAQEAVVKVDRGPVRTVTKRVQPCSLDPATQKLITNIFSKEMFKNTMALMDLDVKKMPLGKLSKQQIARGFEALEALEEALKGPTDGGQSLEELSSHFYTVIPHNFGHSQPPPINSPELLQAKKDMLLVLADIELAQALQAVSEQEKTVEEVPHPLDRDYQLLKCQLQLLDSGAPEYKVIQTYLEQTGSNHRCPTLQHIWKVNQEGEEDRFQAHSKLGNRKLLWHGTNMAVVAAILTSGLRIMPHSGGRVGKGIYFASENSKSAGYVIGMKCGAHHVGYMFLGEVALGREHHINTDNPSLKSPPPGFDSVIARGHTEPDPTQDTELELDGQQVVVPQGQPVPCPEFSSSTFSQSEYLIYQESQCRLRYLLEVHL

Chain of PARP6 (Q2NL67 whole entry): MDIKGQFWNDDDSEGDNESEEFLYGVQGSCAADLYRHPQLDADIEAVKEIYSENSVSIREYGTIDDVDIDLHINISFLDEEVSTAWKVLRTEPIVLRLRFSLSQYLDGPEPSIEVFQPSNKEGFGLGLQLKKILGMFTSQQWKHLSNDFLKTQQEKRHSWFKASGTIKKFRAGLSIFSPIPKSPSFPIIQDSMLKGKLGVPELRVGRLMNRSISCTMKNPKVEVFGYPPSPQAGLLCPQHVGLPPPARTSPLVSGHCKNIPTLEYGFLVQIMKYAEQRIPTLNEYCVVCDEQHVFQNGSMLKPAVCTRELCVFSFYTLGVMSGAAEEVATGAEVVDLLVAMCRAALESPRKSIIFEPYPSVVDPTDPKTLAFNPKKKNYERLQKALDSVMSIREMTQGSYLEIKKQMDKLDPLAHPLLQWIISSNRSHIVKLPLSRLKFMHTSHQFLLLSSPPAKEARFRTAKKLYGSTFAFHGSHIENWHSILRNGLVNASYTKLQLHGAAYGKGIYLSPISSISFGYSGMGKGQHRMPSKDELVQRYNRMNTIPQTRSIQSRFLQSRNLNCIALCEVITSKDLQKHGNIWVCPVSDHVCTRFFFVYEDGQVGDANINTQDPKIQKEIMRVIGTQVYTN
Chain of PARP2 (Q9UGN5 whole entry): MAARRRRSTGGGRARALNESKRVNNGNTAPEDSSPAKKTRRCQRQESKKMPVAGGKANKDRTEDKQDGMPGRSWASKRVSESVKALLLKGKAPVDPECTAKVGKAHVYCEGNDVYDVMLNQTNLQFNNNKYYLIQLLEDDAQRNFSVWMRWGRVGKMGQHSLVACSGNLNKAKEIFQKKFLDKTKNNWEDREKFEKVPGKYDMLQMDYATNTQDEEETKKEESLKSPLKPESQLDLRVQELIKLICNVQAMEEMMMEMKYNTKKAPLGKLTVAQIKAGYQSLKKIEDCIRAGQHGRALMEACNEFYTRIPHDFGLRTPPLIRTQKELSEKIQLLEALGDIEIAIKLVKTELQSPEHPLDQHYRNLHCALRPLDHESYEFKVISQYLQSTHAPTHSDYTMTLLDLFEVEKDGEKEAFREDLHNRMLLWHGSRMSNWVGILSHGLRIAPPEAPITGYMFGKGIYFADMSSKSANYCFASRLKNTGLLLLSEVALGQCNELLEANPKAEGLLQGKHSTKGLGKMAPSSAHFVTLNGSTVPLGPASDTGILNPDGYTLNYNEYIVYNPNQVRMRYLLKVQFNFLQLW
Chain of PARP5a (O95271 1112-1317): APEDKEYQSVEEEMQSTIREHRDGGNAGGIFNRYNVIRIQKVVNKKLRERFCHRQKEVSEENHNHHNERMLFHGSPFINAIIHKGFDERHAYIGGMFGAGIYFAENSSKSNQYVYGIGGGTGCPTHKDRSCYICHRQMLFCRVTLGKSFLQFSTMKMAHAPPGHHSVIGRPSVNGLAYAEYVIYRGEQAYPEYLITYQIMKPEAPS
Chain of PARP1 (P09874 whole entry): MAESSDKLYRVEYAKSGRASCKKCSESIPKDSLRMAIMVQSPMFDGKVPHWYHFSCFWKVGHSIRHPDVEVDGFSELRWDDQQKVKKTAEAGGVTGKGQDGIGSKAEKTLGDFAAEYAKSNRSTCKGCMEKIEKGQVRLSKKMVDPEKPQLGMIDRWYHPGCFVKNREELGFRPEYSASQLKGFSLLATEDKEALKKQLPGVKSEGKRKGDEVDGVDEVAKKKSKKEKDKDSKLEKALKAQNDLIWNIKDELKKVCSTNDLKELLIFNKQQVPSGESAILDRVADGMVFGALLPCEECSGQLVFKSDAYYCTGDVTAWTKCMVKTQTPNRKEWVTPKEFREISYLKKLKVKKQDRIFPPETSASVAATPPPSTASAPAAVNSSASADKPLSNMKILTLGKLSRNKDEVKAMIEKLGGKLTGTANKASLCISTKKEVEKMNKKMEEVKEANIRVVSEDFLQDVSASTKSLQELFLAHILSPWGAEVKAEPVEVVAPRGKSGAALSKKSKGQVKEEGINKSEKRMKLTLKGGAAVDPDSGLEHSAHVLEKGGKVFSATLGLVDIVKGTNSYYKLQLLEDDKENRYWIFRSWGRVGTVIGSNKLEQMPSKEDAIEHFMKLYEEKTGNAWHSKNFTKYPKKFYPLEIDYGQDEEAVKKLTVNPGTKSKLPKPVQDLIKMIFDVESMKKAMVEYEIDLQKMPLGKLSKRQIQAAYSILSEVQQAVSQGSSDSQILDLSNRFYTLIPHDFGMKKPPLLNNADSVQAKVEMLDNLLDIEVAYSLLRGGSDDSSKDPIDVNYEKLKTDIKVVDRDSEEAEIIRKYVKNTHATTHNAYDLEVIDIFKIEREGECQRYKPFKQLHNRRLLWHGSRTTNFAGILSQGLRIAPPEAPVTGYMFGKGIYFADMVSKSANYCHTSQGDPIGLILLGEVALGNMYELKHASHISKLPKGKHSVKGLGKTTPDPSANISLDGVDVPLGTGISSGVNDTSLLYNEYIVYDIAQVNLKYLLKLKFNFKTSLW
Procedure for MDR1 and BCRP: MDCKII cells expressing MDR1 and BCRP were seeded onto polyethylene membranes in 96-well Transwell insert systems at a density to form a confluent cell monolayer. […] The final percent volume of the organic solvent was less than 1%. Permeation of the test compounds from A to B direction and from B to A direction was determined over a 90-min incubation at 37° C. and 5% CO2 with a relative humidity of 95%. At the end of the incubation, samples from the apical and basolateral side were taken and then precipitated with cold acetonitrile containing internal standard. After centrifugation at 4000 rpm, the supernatant was diluted with 0.1% formic acid aqueous solution and quantified by LC-MS/MS. The integrity of the cell monolayers was confirmed by using the marker Lucifer yellow.
The permeability coefficient (1×10-6 cm/s) was calculated using the following equation
(1) The Efflux Ratio was Calculated Using the Following Equation
Efflux ratio=Papp(B to A)/Papp(A to B)
(2) where dCr/dt is the cumulative concentration of the compound in the receiver chamber as a function of time (in μM/s); Vr is the solution volume in the receiver chamber (0.1 ml on the apical side and 0.3 ml on the basolateral side); A is the surface area for the transport, that is, 0.11 cm2 for the area of the monolayer; and C0 is the initial concentration in the donor chamber (in μM).
Procedure for PARP1: Recombinant full length 6HIS tagged PARP1 protein was diluted to 6 nM with 50 mM Tris pH 8, 0.001% Triton X100, 10 mM MgCl2, 150 mM NaCl and incubated for four hours with an equivalent volume of 2 nM fluorescent probe diluted with 50 mM Tris pH 8, 0.001% Triton X100, 10 mM MgCl2, 150 mM NaCl. The final DMSO concentration of the probe was kept below 1% (v/v).
Procedure for PARP3: Recombinant full length PARP3 protein was diluted to 100 nM with 50 mM Tris pH 8, 0.001% Triton X100, 10 mM MgCl2, 150 mM NaCl and incubated for four hours with an equivalent volume of 6 nM fluorescent probe diluted with 50 mM Tris pH 8, 0.001% Triton X100, 10 mM MgCl2, 150 mM NaCl. The final DMSO concentration of the probe was kept below 1% (v/v).
Procedure for PARP5a: Recombinant PARP5a binding domain was diluted to 160 nM with 50 mM Tris pH 8, 0.001% Triton X100, 10 mM MgCl2, 150 mM NaCl and incubated for four hours with an equivalent volume of 6 nM fluorescent probe diluted with 50 mM Tris pH 8, 0.001% Triton X100, 10 mM MgCl2, 150 mM NaCl. The final DMSO concentration of the probe was kept below 1% (v/v).

By IC50 is commonly meant the midpoint of a concentration-inhibition curve. High values mean weaker potency, low ones greater potency. For orientation: efflux ratio means a quotient of directional permeabilities that is used to spot active efflux. For `CNC(=O)c1ccc(N2CCN(Cc3ccc4nc(C)c(=O)[nH]c4c3C)CC2)c(Cl)n1` [Example 3, 6-chloro-5-[4-[(2,5-dimethyl-3-oxo-4H-quinoxalin-6-yl)methyl]piperazin-1-yl]-N-methyl-pyridine-2-carboxamide], the half-maximal inhibitory concentration (IC50) on PARP2 was above 100 µM; on PARP6, above 100 µM; at PARP5a it was above 100 µM; at PARP1, 0.003 µM; at PARP3, above 100 µM. For the same compound, the efflux ratio at 90 min in the series on MDR1 and BCRP amounted to 1.3.

As to `CCc1nc2ccc(CN3CCN(c4ccc(C(=O)NC)nc4F)CC3)c(Cl)c2[nH]c1=O` [Example 9, 5-[4-[(5-chloro-2-ethyl-3-oxo-4H-quinoxalin-6-yl)methyl]piperazin-1-yl]-6-fluoro-N-methyl-pyridine-2-carboxamide], in the series with MDR1 and BCRP, the efflux ratio at 90 min was 0.4. In addition, the 50% inhibitory concentration (IC50) at PARP1 worked out at 0.004 µM.

Regarding `CNC(=O)c1ccc(N2CCN(Cc3ccc4nc(C(C)(F)F)c(=O)[nH]c4c3F)CC2)c(C)n1` [Example 19, 5-[4-[[2-(1,1-difluoroethyl)-5-fluoro-3-oxo-4H-quinoxalin-6-yl]methyl]piperazin-1-yl]-N,6-dimethyl-pyridine-2-carboxamide], the half-maximal inhibitory concentration (IC50) on PARP2 stood at 40 µM; on PARP1, 0.013 µM. In addition, the efflux ratio at 90 min with MDR1 and BCRP was determined as 2.4.

On to `CNC(=O)c1ccc(N2CCN(Cc3ccc4nc(C)c(=O)[nH]c4c3F)CC2)c(C(F)F)n1` [Example 21, 6-(difluoromethyl)-5-[4-[(5-fluoro-2-methyl-3-oxo-4H-quinoxalin-6-yl)methyl]piperazin-1-yl]-N-methyl-pyridine-2-carboxamide], for which the IC50 was above 100 µM at PARP2; above 100 µM at PARP6; above 100 µM on PARP5a; 0.007 µM at PARP1; 5.8 µM at PARP3. Moreover, the efflux ratio at 90 min in the series with MDR1 and BCRP was found to be 1.6.

With `CCc1nc2ccc(CN3CCN(c4ccc(C(=O)NC)nc4C(F)F)CC3)c(F)c2[nH]c1=O` [Example 24, 6-(difluoromethyl)-5-[4-[(2-ethyl-5-fluoro-3-oxo-4H-quinoxalin-6-yl)methyl]piperazin-1-yl]-N-methyl-pyridine-2-carboxamide], the 50% inhibitory concentration (IC50) on PARP2 is above 81 µM; on PARP6 it was above 100 µM; at PARP5a, above 100 µM; at PARP1, 0.006 µM; at PARP3 it was above 100 µM. Besides, the efflux ratio at 90 min in the series with MDR1 and BCRP is 1.1.

Regarding `CCc1nc2ccc(CN3CCN(c4ccc(C(=O)NC)nc4Cl)CC3)c(F)c2[nH]c1=O` [Example 28, 6-chloro-5-[4-[(2-ethyl-5-fluoro-3-oxo-4H-quinoxalin-6-yl)methyl]piperazin-1-yl]-N-methyl-pyridine-2-carboxamide], the IC50 on PARP2 was above 100 µM; on PARP6 it was above 100 µM; at PARP5a it was above 100 µM; at PARP1, 0.005 µM; on PARP3, above 100 µM. In addition, in the series on MDR1 and BCRP, the efflux ratio at 90 min was found to be 0.8.

As for `CNC(=O)c1ccc(N2CCN(Cc3ccc4nc(C)c(=O)[nH]c4c3F)CC2)c(Cl)n1` [Example 30, 6-chloro-5-[4-[(5-fluoro-2-methyl-3-oxo-4H-quinoxalin-6-yl)methyl]piperazin-1-yl]-N-methyl-pyridine-2-carboxamide], the half-inhibitory concentration (IC50) was above 100 µM on PARP2; above 100 µM on PARP6; above 100 µM on PARP5a; 0.006 µM at PARP1; above 100 µM on PARP3. In the series on MDR1 and BCRP, the efflux ratio at 90 min came to 1.8.

`CNC(=O)c1ccc(N2CCN(Cc3ccc4nc(C)c(=O)[nH]c4c3F)CC2)cn1` [Example 32, 5-[4-[(5-fluoro-2-methyl-3-oxo-4H-quinoxalin-6-yl)methyl]piperazin-1-yl]-N-methyl-pyridine-2-carboxamide]: the half-maximal inhibitory concentration (IC50) at PARP2 is above 100 µM; on PARP6, above 100 µM; at PARP5a, above 100 µM; at PARP1 it was 0.007 µM; at PARP3 it was above 100 µM.

Turning to `CNC(=O)c1ccc(N2CCN(Cc3ccc4nc(C(F)F)c(=O)[nH]c4c3F)CC2)c(C)n1` [Example 37, 5-[4-[[2-(difluoromethyl)-5-fluoro-3-oxo-4H-quinoxalin-6-yl]methyl]piperazin-1-yl]-N,6-dimethyl-pyridine-2-carboxamide], the results for the IC50 at PARP2 and at PARP1 were 57 µM and 0.026 µM, respectively. Moreover, the efflux ratio at 90 min in the series on MDR1 and BCRP was found to be 5.

Consider `CNC(=O)c1ccc(N2CCN(Cc3ccc4nc(OC)c(=O)[nH]c4c3F)CC2)cn1` [Example 38, 5-[4-[(5-fluoro-2-methoxy-3-oxo-4H-quinoxalin-6-yl)methyl]piperazin-1-yl]-N-methyl-pyridine-2-carboxamide], for which the IC50 was 21 µM on PARP2; above 100 µM on PARP6; above 100 µM at PARP5a; 0.012 µM on PARP1; above 100 µM on PARP3.

For `CNC(=O)c1ccc(N2CCN(Cc3ccc4nc(OC)c(=O)[nH]c4c3F)CC2)c(F)n1` [Example 39, 6-fluoro-5-[4-[(5-fluoro-2-methoxy-3-oxo-4H-quinoxalin-6-yl)methyl]piperazin-1-yl]-N-methyl-pyridine-2-carboxamide], the concentration for half-maximal inhibition (IC50) at PARP2 is above 100 µM; at PARP6 it was above 100 µM; at PARP5a, above 100 µM; on PARP1 it was 0.006 µM; on PARP3 it was above 100 µM. Moreover, the efflux ratio at 90 min with MDR1 and BCRP was found to be 1.9.

On to `CNC(=O)c1ccc(N2CCN(Cc3ccc4nc(OC)c(=O)[nH]c4c3F)CC2)c(C)n1` [Example 40, 5-[4-[(5-fluoro-2-methoxy-3-oxo-4H-quinoxalin-6-yl)methyl]piperazin-1-yl]-N,6-dimethyl-pyridine-2-carboxamide], for which the half-inhibitory concentration (IC50) on PARP2 is above 100 µM; on PARP6, above 100 µM; on PARP5a it was 13 µM; on PARP1, 0.011 µM; at PARP3, above 100 µM. In the series with MDR1 and BCRP, the efflux ratio at 90 min came out at 2.

As to `CNC(=O)c1ccc(N2CCN(Cc3ccc4nc(OC)c(=O)[nH]c4c3F)CC2)c(Cl)n1` [Example 41, 6-chloro-5-[4-[(5-fluoro-2-methoxy-3-oxo-4H-quinoxalin-6-yl)methyl]piperazin-1-yl]-N-methyl-pyridine-2-carboxamide], the IC50 on PARP2 was above 100 µM; on PARP6, above 100 µM; on PARP5a, above 100 µM; on PARP1 it was 0.005 µM; at PARP3, above 100 µM. Further, the efflux ratio at 90 min in the series with MDR1 and BCRP was determined as 2.4.

As for `CCNC(=O)c1ccc(N2CCN(Cc3ccc4nc(C)c(=O)[nH]c4c3F)CC2)c(F)n1` [Example 45, N-ethyl-6-fluoro-5-[4-[(5-fluoro-2-methyl-3-oxo-4H-quinoxalin-6-yl)methyl]piperazin-1-yl]pyridine-2-carboxamide], the IC50 was above 100 µM at PARP2 and 0.006 µM at PARP1. In the series with MDR1 and BCRP, the efflux ratio at 90 min amounted to 1.5.

As for `CNC(=O)c1ccc(N2CCN(Cc3ccc4nc(C(F)(F)F)c(=O)[nH]c4c3F)CC2)c(C)n1` [Example 47, 5-[4-[[5-fluoro-3-oxo-2-(trifluoromethyl)-4H-quinoxalin-6-yl]methyl]piperazin-1-yl]-N,6-dimethyl-pyridine-2-carboxamide], the half-maximal inhibitory concentration (IC50) was above 100 µM on PARP2; above 100 µM on PARP6; above 100 µM at PARP5a; 0.076 µM on PARP1; above 100 µM at PARP3.

In the case of `CNC(=O)c1ccc(N2CCN(Cc3ccc4nc(C(F)(F)F)c(=O)[nH]c4c3F)CC2)c(F)n1` [Example 48, 6-fluoro-5-[4-[[5-fluoro-3-oxo-2-(trifluoromethyl)-4H-quinoxalin-6-yl]methyl]piperazin-1-yl]-N-methyl-pyridine-2-carboxamide], the IC50 on PARP2 is 26 µM; on PARP6, above 100 µM; at PARP5a, above 100 µM; on PARP1, 0.039 µM; at PARP3, above 100 µM. Further, the efflux ratio at 90 min in the series with MDR1 and BCRP was 8.8.

Turning to `CNC(=O)c1ccc(N2CCN(Cc3ccc4nc(C(F)(F)F)c(=O)[nH]c4c3F)CC2)c(Cl)n1` [Example 49, 6-chloro-5-[4-[[5-fluoro-3-oxo-2-(trifluoromethyl)-4H-quinoxalin-6-yl]methyl]piperazin-1-yl]-N-methyl-pyridine-2-carboxamide], the half-inhibitory concentration (IC50) at PARP2 was 11 µM; on PARP6 it was above 100 µM; at PARP5a, above 100 µM; at PARP1 it was 0.043 µM; on PARP3 it was above 29 µM.

For the compound `CNC(=O)c1ccc(N2CCN(Cc3ccc4nc(C)c(=O)[nH]c4c3C)CC2)c(C(F)F)n1` [Example 60, 6-(difluoromethyl)-5-[4-[(2,5-dimethyl-3-oxo-4H-quinoxalin-6-yl)methyl]piperazin-1-yl]-N-methyl-pyridine-2-carboxamide], the 50% inhibitory concentration (IC50) at PARP2 was above 100 µM; on PARP1 it was 0.023 µM.
